Here are results for 2 compounds from patent EP0046712A1, “Fluorinated diaminobutane derivatives” (MERRELL TORAUDE ET COMPAGNIE, priority 1980, dated 1982).

Read-outs that look alike come from different tables or passages of the source.

Common to all, as to type: in vivo
One data set has as its target T1, GABA-T (Mus musculus, UniProt P61922).
T1 construct: The brains are removed from the dead mice and are divided into two portions by sagittal section; from tissue; host or cells: brain of male albino CD1 mice dosed i.p. for four days
Put plainly: GABA-T activity in brain of mice after daily i.p. dosing for four days. The conditions noted are these: ip, four consecutive days, 24 hours after the last dose; for inhibition at 5 mg/kg: daily dose 5 mg/kg i.p.; for inhibition at 10 mg/kg: daily dose 10 mg/kg i.p. On the procedure:
(§1) A group of 10 male albino CDI mice from Charles Riner, France, is given an i.p. injection of the test compound in aqueous solution daily for four consecutive days. Half of the animals are killed by decapitation 24 hours after the last dose of the test compound. The other half of the animals are observed for up to 12 days for toxicity (as indicated by weight loss and deaths). Control animals receive an injection of the vehicle only.
(§2) The brains are removed from the dead mice and are divided into two portions by sagittal section. One half is used for the measurement of GABA-T activity while the other half is used for measuring GABA content. The GABA-T activity is measured using known methods as dessribed by M.Jung et al., J. Neurochem., 28, 717 (1977) and 29, 797 (1977). GABA content is measured by perchloric acid or trichloroacetic acid extracts using an amino acid analyzer equiped with a fluorescene detector.

Data set [1] can be described thus: Toxicity (weight loss and deaths) in mice after daily i.p. dosing for four days. The note with it: four consecutive days, observed for up to 12 days; for Morality (After treatment) / mortality at 288 h: deaths per 5 mice; for mortality at 288 h: mouse, in vivo, ip, read-out: Morality (After treatment) (converted). On the procedure: as §1
Data set [2] deals with GABA concentration in the brain. Nature of the data set: GABA content in brain of mice after daily i.p. dosing for four days. The conditions noted are these: four consecutive days, 24 hours after the last dose. On the procedure: as §1, §2
In data set [3] the test system is clonic seizures induced by an i.v. challenge of (+)-bicuculline. Nature of the data set: Protection of mice against clonic seizures induced by i.v. (+)-bicuculline. The note with it: for ED50: Mus musculus, ip, single dose, protection against bicuculline-induced clonic seizures.

T1 sequence (P61922 29-500): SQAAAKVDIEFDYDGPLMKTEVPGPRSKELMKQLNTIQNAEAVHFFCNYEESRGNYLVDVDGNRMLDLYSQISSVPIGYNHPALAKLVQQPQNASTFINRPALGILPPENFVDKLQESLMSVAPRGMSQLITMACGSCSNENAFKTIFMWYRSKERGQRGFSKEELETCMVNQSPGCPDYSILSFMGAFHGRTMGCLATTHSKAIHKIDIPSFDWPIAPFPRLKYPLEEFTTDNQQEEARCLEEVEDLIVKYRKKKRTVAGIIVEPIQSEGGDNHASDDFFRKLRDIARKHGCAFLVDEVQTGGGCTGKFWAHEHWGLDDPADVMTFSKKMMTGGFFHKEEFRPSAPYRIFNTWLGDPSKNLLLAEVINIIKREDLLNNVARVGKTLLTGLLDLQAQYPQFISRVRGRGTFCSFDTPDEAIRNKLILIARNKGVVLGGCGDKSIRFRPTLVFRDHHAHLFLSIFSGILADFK

On GABA-T (daily dose 2 mg/kg i.p.), `NCCC(N)C(F)F` (stereo not drawn) [DFDB, 1,1-difluoro-2,4-diaminobutane] showed an inhibition at 2 mg/kg of 69.5%. Further, testing at 5 mg/kg at GABA-T gave an inhibition of 71.4%. Besides, the inhibition at 10 mg/kg against GABA-T amounted to 81%. This compound also registered an inhibition at 20 mg/kg on GABA-T (daily dose 20 mg/kg i.p.) of 96.7%. The “Morality (After treatment)” value in data set [1] (daily dose 2 mg/kg i.p.) and in data set [1] (daily dose 5 mg/kg i.p.) was 0/5 throughout. For the same compound, the “Weight Loss” value in data set [1] (daily dose 2 mg/kg i.p.) and in data set [1] (daily dose 5 mg/kg i.p.) was 0% each time. The mortality at 288 h is 60% in data set [1] (daily dose 10 mg/kg i.p.) and 100% in data set [1] (daily dose 20 mg/kg i.p.). For the same compound, the GABA content elevation in data set [2] (daily dose 5 mg/kg i.p.) came out at 200%; in data set [2] (daily dose 10 mg/kg i.p.), 275%; in data set [2] (daily dose 20 mg/kg i.p.), 465%. In data set [3], this compound gave an ED50 of 4.2 mg/kg. The “% of Animals Blocked” value is on record as 20% in data set [3] (single dose 3 mg/kg i.p.), 45% in data set [3] (single dose 4 mg/kg i.p.), 90% in data set [3] (single dose 6 mg/kg i.p.) and 95% in data set [3] (single dose 8 mg/kg i.p.).
As for `NCCC(N)CF` (stereo not drawn) [MFDB, 1-fluoro-2,4-diaminobutane], at GABA-T, 5 mg/kg produced 39.7% inhibition. Also, 10 mg/kg produced 49.8% inhibition against GABA-T. This compound also displayed an inhibition at 25 mg/kg against GABA-T (daily dose 25 mg/kg i.p.) of 74%. At GABA-T (daily dose 50 mg/kg i.p.), this compound gave an inhibition at 50 mg/kg of 79%. In addition, the “Morality (After treatment)” value in data set [1] (daily dose 5 mg/kg i.p.) and in data set [1] (daily dose 10 mg/kg i.p.) was 0/5 each time. For the same compound, the “Weight Loss” value in data set [1] (daily dose 5 mg/kg i.p.) and in data set [1] (daily dose 10 mg/kg i.p.) was 0% in each case. The mortality at 288 h was 40% in data set [1] (daily dose 25 mg/kg i.p.) and 60% in data set [1] (daily dose 50 mg/kg i.p.). For the same compound, the GABA content elevation in data set [2] (daily dose 5 mg/kg i.p.) stood at 190%; in data set [2] (daily dose 10 mg/kg i.p.), 200%; in data set [2] (daily dose 25 mg/kg i.p.) it was 470%; in data set [2] (daily dose 50 mg/kg i.p.), 465%. This compound yielded an ED50 in data set [3] of 65 mg/kg. For the same compound, the “% of Animals Blocked” value in data set [3] (single dose 42 mg/kg i.p.) worked out at 20%; in data set [3] (single dose 51 mg/kg i.p.), 40%; in data set [3] (single dose 59 mg/kg i.p.), 50%; in data set [3] (single dose 68 mg/kg i.p.) it was 55%; in data set [3] (single dose 84 mg/kg i.p.), 60%; in data set [3] (single dose 100 mg/kg i.p.), 60%.
